Experiment [1] has as its system LC3. The experiment can be described thus: UV-induced LC3 degradation in organotypic cerebellar brain slices. The format is cell-based, mice. As to the method: In FIG. 19B, LC3 degradation in UV-treated A-T brain slices is shown. The same tissue lysates prepared from A-T and ATM+/− brains used in FIG. 17A were analyzed for LC3 and actin proteins. Intensity of the total LC3 and corresponding actin bands was quantitated using BioRad Quantity One software. The percent changes in LC3 amounts were calculated as a ratio between band intensities of LC3 (I and II) and actin (bar chart). In FIGS. 19A and 19B, the bar graphs have the following legends: bars 1: No drug and +Bafl controls; bars 2: +UV; and bars 3: +Bafl+UV.

Experiment [2] concerns polyubiquitylated proteins. The experiment can be described thus: UV-induced degradation of polyubiquitylated proteins in organotypic cerebellar brain slices. Particulars: Bafilomycin A1 18 hrs, UV 150 mJ. The format is cell-based, mice. Here is the method: Experiments were conducted to determine if UV would induce degradation of the ubiquitin-conjugated cellular proteins in A-T organotypic brain slices grown in culture, similar to the findings described herein for A-T cells (See FIGS. 8A-8B). Two-month-old mice were used irrespective of the gender. Cerebellar organotypic brain slices (400 μm thick) from three mice were obtained using a McIlwain tissue chopper (The Mickle Lab Eng. Co. Ltd). Slices from two A-T mice and three ATM+/− mice were pooled and randomly placed on Millicell culture plate inserts (Millipore, MA). Brain slices were then incubated for 1 day in OptiMem-based medium at 37° C. in a humidified atmosphere of 5% CO2 and 95% air. One day later, slices were treated with Bafilomycin A1 for 18 hrs. Slices were then exposed to UV (150 mJ)) or left untreated. After three hours, tissue lysates were prepared as described herein. Lysates were then analyzed by Western analysis using anti-ubiquitin antibody as described herein, and the results shown in FIG. 17A. Intensity of the total polyubiquitylated proteins and free ubiquitin was quantitated using BioRad Quantity One software. All control values (−UV and +Bafl) were normalized to 100%, and values for experimental treatments were expressed as percent variations over control to give the results shown in FIG. 17B. […]

Experiment [3] relates to HA-polyubiquitylated proteins. The experiment can be described thus: UV-induced degradation of HA-polyubiquitylated proteins (anti-HA Western blot). The format is cell-based, human. Particulars: for UV-induced degradation of HA-Lys48-linked polyubiquitylated proteins: HA-Lys48 only ubiquitin construct; for UV-induced decrease of HA-polyubiquitylated proteins: MG132 1 μM or Bafl 1 nM 18 h, 3 h recovery; for UV-induced decrease of HA-polyubiquitylated proteins / UV-induced degradation of HA-polyubiquitylated proteins: UV 25 mJ/m2; for UV-induced degradation of HA-polyubiquitylated proteins: MG132 1 nm or 3-MA 10 nm for 18 h. As to the method: Immunoblotting Analysis of HA-ubiquitin conjugated proteins in cells exposed to UV radiation. Cells ([…]) were transfected with a hemagglutinin (HA)-ubiquitin plasmid using the PolyFect transfection reagent (Qiagen; Valencia, CA) as described (24). Twenty-four h after transfection, cells were treated with either proteasome inhibitor MG132 (1 μM) (Boston Biochemicals; Cambridge, MA) or autophagy inhibitor Bafilomycin A1 (Bafl) (1 nM) (Sigma-Aldrich) or 3-Methyladenine (3-MA) (100 nM) for 18 h. Cells were exposed to UV radiation (25 mJoules, using BioRad GS Gene Linker™ UV Chamber) and/or left untreated. Cells were then allowed to recover in the presence of inhibitors for 3 hr. Cell lysis, SDS-PAGE, and immunoblotting analysis to detect HA-ubiquitin conjugated proteins using anti-HA antibodies was carried out as described herein.
Decrease in the steady state levels of polyubiquitylated proteins could be due to their increased deubiquitylation or increased degradation via the 26S proteasome. Also, the ubiquitin antibody used in the experiment herein is known to cross-react with free ISG15/UCRP (44), and ISG15 protein is elevated in A-T cells (20). An HA-ubiquitin construct was transfected and then the steady state levels of the HA-polyubiquitylated proteins was assessed (to rule out the possibility of protein polyubiquitylation versus protein polyISGlyation), in the absence or presence of the proteasome inhibitor MG132 (to rule out the possibility of protein deubiquitylation versus protein degradation), in UV treated A-T and ATM+ cells. In FIG. 8B, A-T and ATM+ cells were transfected with a HA-ubiquitin construct. Cells were then treated with MG132 (1 μM) or Bafl (1 nM) for 18 hours and exposed to UV radiation (25 mJ/m2). After recovery in the presence of inhibitors for an additional three hours, cells were lysed. Cell extracts were analyzed by Western blotting for HA-polyubiquitylated proteins and actin using anti-HA and anti-actin antibodies respectively. Intensity of the total HA-polyubiquitylated proteins was quantitated using BioRad Quantity One software and results shown in FIG. 8C.
To complement the results shown in FIG. 8B, another construct was used that expresses HA-ubiquitin and that can preferentially make polyubiquitin chains linked through Lys48 on the substrates (20). In FIG. 8D, A-T and ATM+ cells were transfected with HA-Lys48 only ubiquitin construct. The inhibitor and UV treatments, cell lysis, SDS-PAGE, and immunoblotting analysis to detect HA-ubiquitin conjugated proteins using anti-HA antibodies was carried out as described herein. The experiment was repeated two times with the reproducible results. Similar results were obtained using this distinct HA-ubiquitin construct (FIG. 8D) as obtained herein (FIG. 8B); UV induced MG132- and Bafilomycin-resistant degradation of HA-Lys48-linked polyubiquitylated proteins in A-T cells, but not in ATM+ cells.
For FIG. 14A, HA-ubiquitin-transfected A-T/LV-control shRNA cells were exposed to UV (25 mJ/m2). After three hours of recovery, assessment of HA-polyubiquitylated proteins was carried out as described herein for FIG. 8B. In FIG. 14B, HA-ubiquitin-transfected A-T/LV-control shRNA cells were treated with Bafl (1 nm for 18 h). Cells were then exposed to UV (25 mJ/m2). After three hours of recovery in the presence of the inhibitor, assessment of HA-polyubiquitylated proteins was carried out as described for FIG. 14A. For FIG. 14C, HA-ubiquitin-transfected A-T/LV-control shRNA cells were treated with MG132 (1 nm for 18 h). Cells were then exposed to UV (25 mJ/m2). After three hours of recovery in the presence of the inhibitor, assessment of HA-polyubiquitylated proteins was carried out as described for FIG. 14A. For FIG. 14D, HA-ubiquitin-transfected A-T/LV-control shRNA cells were treated with 3-MA (10 nm for 18 h). Cells were then exposed to UV (25 mJ/m2). […]
In general terms: A western blot detects proteins with antibodies after separation by electrophoresis.

The structures appear in SMILES notation. Residues, ends and D or L forms follow the SMILES beside them. *: point of attachment. Cbz = O=C(OCc1ccccc1)*

With `CO/C1=C\C(C)=C\[C@@H](C)[C@@H](O)[C@@H](C)C/C(C)=C/C=C/[C@H](OC)[C@@H]([C@@H](C)[C@@H](O)[C@H](C)[C@@]2(O)C[C@@H](O)[C@H](C)[C@@H](C(C)C)O2)OC1=O` [Bafilomycin A1], the “aberrant autophagic flux (degradation) of autophagy substrates under genotoxic stress” value in experiment [1] (A-T cerebellar brain slices) is given as “resistant”. Besides, in experiment [1] (ATM+/− cerebellar slices), the “UV-induced autophagic flux (LC3 degradation)” value was “protected”. In addition, the “UV-mediated degradation of polyubiquitylated proteins” value in experiment [2] (A-T brain slices) was “failed to protect”. The “UV-induced degradation of polyubiquitylated proteins” value in experiment [2] (ATM+/− brain slices) is reported as “markedly protected”. Besides, in experiment [3] (A-T cells), the “UV-induced degradation of HA-Lys48-linked polyubiquitylated proteins” value is given as “resistant” and the “UV-induced decrease of HA-polyubiquitylated proteins” value (from here on “UV-induced decrease”) is listed as “failed to block”. Further, the “UV-induced decrease” value in experiment [3] (ATM+ cells) is recorded as “significantly blocked”.

Consider `CC(C)C[C@@H](C=O)NC(=O)[C@H](CC(C)C)NC(=O)[C@H](CC(C)C)NC(=O)OCc1ccccc1` [MG132] (Cbz-Leu-Leu-Leu-aldehyde), for which the “UV-induced degradation of HA-Lys48-linked polyubiquitylated proteins” value in experiment [3] (A-T cells) was “resistant”. Further, the “UV-induced decrease” value in experiment [3] (A-T cells) is recorded as “failed to protect”; in experiment [3] (ATM+ cells) it was “completely blocked”. Besides, the entries for the “UV-induced degradation of HA-polyubiquitylated proteins” value in experiment [3] (A-T/LV-ISG15 shRNA (ISG15-silenced) cells) and in experiment [3] (A-T/LV-control shRNA cells) were “completely block” and “failed to block”, respectively.

The values above are taken from US12085575B2, “Compositions and methods for detecting proteinopathies” (BOARD OF SUPERVISORS OF LOUISIANA STATE UNIVERSITY AND …, priority 2011, dated 2024).
